According to patent US9586951B2 (FUJIFILM Corporation, priority 2013, dated 2017):

Biological target: T1, ATM (Homo sapiens, UniProt Q13315)
T1 construct: detecting phosphorylation of Chk2 in a human non-small cell lung cancer cell line NCI-H460 (ATCC company); host or cells: NCI-H460 human non-small cell lung cancer cells
Experiment: ATM inhibition test (phosphorylation of Chk2 generated by ionizing radiation, AlphaScreen SureFire)
Format: cell-based
Settings: phosphorylated Chk2 in NCI-H460 cells, ionizing radiation 8Gy, 1 hour after test compound treatment; read-out: ATM inhibitory activity
Method in brief: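 NCI-H460 cells treated with compound for 1 hour, then irradiated with 8Gy and incubated 1 hour at 37° C. Phospho-Chk2 measured by AlphaScreen SureFire. Inhibition ratio calculated relative to untreated irradiated and non-irradiated wells.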

T1 sequence (Q13315 whole entry): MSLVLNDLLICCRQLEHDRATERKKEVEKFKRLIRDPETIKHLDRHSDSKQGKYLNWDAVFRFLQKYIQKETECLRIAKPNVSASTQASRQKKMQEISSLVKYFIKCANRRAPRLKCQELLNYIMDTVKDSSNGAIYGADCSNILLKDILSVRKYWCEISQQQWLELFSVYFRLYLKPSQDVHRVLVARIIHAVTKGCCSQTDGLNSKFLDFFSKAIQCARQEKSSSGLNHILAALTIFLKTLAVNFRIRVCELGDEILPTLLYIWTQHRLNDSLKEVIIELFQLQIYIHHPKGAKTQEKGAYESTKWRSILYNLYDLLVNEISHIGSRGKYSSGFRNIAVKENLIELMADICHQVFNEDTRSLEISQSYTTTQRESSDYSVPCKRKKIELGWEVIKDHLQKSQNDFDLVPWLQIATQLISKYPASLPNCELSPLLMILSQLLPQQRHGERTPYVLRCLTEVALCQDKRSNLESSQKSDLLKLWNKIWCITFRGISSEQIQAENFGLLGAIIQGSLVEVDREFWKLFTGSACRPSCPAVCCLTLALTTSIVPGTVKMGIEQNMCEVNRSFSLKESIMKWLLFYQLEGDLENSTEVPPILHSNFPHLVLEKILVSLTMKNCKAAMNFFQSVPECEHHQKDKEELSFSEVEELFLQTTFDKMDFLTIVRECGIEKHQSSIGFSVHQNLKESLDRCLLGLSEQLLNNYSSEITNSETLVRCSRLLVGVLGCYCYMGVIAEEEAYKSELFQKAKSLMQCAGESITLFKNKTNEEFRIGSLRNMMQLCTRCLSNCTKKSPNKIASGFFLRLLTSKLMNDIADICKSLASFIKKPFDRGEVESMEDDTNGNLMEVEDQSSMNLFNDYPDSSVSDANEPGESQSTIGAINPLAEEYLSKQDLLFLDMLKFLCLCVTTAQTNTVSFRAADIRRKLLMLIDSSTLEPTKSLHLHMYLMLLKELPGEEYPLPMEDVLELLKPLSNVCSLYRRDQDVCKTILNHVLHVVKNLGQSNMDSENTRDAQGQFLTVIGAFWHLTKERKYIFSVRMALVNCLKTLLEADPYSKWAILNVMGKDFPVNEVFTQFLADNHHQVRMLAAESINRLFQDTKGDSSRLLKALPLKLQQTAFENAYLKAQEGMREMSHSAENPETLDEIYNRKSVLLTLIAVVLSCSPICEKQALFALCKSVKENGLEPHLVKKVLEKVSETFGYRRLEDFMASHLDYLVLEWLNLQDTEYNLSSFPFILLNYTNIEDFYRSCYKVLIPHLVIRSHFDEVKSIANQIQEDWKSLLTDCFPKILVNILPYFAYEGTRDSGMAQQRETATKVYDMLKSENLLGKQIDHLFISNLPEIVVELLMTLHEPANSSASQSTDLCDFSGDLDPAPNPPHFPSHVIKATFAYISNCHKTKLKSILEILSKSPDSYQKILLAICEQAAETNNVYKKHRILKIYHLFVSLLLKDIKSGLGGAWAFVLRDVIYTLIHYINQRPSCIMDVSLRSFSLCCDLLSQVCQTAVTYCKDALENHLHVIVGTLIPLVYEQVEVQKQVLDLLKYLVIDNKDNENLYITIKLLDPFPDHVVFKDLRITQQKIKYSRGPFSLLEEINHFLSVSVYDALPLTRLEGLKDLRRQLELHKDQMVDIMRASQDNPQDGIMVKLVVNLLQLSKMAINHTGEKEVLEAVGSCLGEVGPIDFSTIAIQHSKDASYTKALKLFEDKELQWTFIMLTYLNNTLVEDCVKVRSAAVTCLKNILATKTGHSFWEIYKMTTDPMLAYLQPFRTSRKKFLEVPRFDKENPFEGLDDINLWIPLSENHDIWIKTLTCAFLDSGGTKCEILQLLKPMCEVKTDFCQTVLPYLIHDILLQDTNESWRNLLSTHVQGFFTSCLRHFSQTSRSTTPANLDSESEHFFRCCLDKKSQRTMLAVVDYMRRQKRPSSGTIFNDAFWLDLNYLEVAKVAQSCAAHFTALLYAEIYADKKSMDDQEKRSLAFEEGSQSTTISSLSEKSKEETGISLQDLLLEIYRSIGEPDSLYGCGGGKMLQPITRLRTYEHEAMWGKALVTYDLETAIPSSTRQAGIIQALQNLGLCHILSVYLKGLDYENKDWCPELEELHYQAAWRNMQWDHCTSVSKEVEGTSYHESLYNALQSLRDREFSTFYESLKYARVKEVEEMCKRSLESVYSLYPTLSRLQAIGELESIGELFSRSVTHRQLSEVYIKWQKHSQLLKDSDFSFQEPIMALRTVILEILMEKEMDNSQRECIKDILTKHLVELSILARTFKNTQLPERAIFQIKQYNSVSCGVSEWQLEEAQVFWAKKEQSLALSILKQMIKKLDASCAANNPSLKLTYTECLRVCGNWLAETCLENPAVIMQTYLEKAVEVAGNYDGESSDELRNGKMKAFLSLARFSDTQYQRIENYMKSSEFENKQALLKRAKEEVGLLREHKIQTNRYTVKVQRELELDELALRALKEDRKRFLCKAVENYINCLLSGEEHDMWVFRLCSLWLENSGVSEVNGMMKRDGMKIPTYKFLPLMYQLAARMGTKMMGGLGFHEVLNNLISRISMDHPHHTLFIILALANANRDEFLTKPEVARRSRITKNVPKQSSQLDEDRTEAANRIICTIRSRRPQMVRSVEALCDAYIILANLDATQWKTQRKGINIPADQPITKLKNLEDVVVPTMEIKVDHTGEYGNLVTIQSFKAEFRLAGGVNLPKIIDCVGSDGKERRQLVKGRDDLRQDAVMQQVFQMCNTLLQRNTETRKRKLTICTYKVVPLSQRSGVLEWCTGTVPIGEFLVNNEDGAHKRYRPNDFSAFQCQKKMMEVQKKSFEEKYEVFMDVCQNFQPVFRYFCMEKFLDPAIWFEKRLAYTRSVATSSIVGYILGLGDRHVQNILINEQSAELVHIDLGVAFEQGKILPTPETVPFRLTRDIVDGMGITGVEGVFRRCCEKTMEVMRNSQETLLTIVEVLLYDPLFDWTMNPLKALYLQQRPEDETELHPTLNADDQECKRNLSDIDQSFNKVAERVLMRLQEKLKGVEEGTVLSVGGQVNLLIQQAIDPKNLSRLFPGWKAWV

Structure (SMILES): Cc1ccc(C(CCN(C)CCCN(C)C)Nc2ccc3c(c2)Sc2cccc(-c4cc(N5CCOCC5)cc(=O)[nH]4)c2S3)nc1 (single isomer, unassigned) [Example 10-5-2, 6-(7-((3-((3-(Dimethylamino)propyl)(methyl)amino)-1-(5-methylpyridin-2-yl)propyl)amino)thianthren-1-yl)-4-morpholinopyridin-2(1H)-one]
- IC50: 100 to 500 nM

Structure (SMILES): CNCc1cccc(C(C)Nc2ccc3c(c2)Sc2cccc(-c4cc(N5CCOCC5)cc(=O)[nH]4)c2S3)n1 (stereo not drawn) [Example 1-20-8, 6-(7-((1-(6-((Methylamino)methyl)pyridin-2-yl)ethyl)amino)thianthren-1-yl)-4-morpholino pyridin-2(1H)-one]
- IC50: 100 to 500 nM

Structure (SMILES): O=C(CN1CCOCC1)Nc1ccc2c(c1)Sc1cccc(-c3cc(N4CCOCC4)cc(=O)[nH]3)c1S2 [Example 1-7-4, 2-Morpholino-N-(6-(4-morpholino-6-oxo-1,6-dihydropyridin-2-yl)thianthren-2-yl)acetamide]
- IC50: 100 to 500 nM

Structure (SMILES): CCC(Nc1ccc2c(c1)Sc1cccc(-c3cc(N4CCOCC4)cc(=O)[nH]3)c1O2)c1cncc(OC)c1 (stereo not drawn) [Example 4-4-27, 6-(8-((1-(5-Methoxypyridin-3-yl)propyl)amino)phenoxathiin-4-yl)-4-morpholino pyridin-2(1 H)-one]
- IC50: 100 to 500 nM

Structure (SMILES): O=c1cc(N2CCOCC2)cc(-c2cccc3c2Oc2ccc(N[C@H]4CCN(Cc5ccccc5)C[C@@H]4O)cc2C3)[nH]1 (relative stereo) [Example 2-33, 6-(7-((trans-1-benzyl-3-hydroxypiperidin-4-yl)amino)-9H-xanthen-4-yl)-4-morpholinopyridin-2(1H)-one]
- IC50: 100 to 500 nM

Structure (SMILES): COc1cncc(C(C)Nc2ccc3c(c2)Cc2cccc(-c4cc(N5CCOCC5)cc(=O)[nH]4)c2O3)n1 (stereo not drawn) [Example 2-14-57, 6-(7-((1-(6-Methoxypyrazin-2-yl)ethyl)amino)-9H-xanthen-4-yl)-4-morpholino pyridin-2(1H)-one]
- IC50: 100 to 500 nM

Structure (SMILES): COCC(CN1CCCCC1)Nc1ccc2c(c1)Sc1cccc(-c3cc(N4CCOCC4)cc(=O)[nH]3)c1S2 (stereo not drawn) [Example 1-17-2, 6-(7-((1-Methoxy-3-(piperidin-1-yl)propan-2-yl)amino)thianthren-1-yl)-4-morpholinopyridin-2(1H)-one]
- IC50: 100 to 500 nM

Structure (SMILES): Cc1ccc(C(Nc2ccc3c(c2)Sc2cccc(-c4cc(N5CCOCC5)cc(=O)[nH]4)c2S3)[C@H]2CN(C)CCO2)nc1 (single isomer, unassigned) [Example 1-56-13]
- IC50: < 100 nM

Structure (SMILES): CC(C)(O)CN1CCC(Nc2ccc3c(c2)Sc2cccc(-c4cc(N5CCOCC5)cc(=O)[nH]4)c2S3)CC1 [Example 1-29-1, 6-(7-((1-(2-hydroxy-2-methylpropyl)piperidin-4-yl)amino)thianthren-1-yl)-4-morpholinopyridin-2(1H)-one]
- IC50: 100 to 500 nM

Structure (SMILES): Nc1ccc2c(c1)Cc1cccc(-c3cc(N4CCOCC4)cc(=O)[nH]3)c1O2 [Example 2-1-1, 5-6-(7-amino-9H-xanthen-4-yl)-4-morpholinopyridin-2(1H)-one]
- IC50: 500 to 2000 nM

Structure (SMILES): O=c1cc(N2CCOCC2)cc(-c2cccc3c2Oc2ccc(NCc4cncc(-n5ccnc5)c4)cc2C3)[nH]1 [Example 2-2-56, 6-(7-(((5-(1H-Imidazol-1-yl)pyridin-3-yl)methyl)amino)-9H-xanthen-4-yl)-4-morpholino pyridin-2 (1H)-one]
- IC50: 100 to 500 nM

Structure (SMILES): Cc1ccc(C(Nc2ccc3c(c2)Sc2cccc(-c4cc(N5CCOCC5)cc(=O)[nH]4)c2S3)C2CCN(CC(F)F)CC2)nc1 (stereo not drawn) [Example 1-58, 6-(7-(((1-(2,2-difluoroethyl)piperidin-4-yl)(5-methylpyridin-2-yl)methyl)amino)thianthren-1-yl)-4-morpholinopyridin-2(1H)-one]
- IC50: < 100 nM

Structure (SMILES): O=C1CCN1c1cncc(CNc2ccc3c(c2)Sc2cccc(-c4cc(N5CCOCC5)cc(=O)[nH]4)c2O3)c1 [Example 4-8-16, 4-Morpholino-6-(8-(((5-(2-oxoazetidin-1-yl)pyridin-3-yl)methyl)amino)phenoxathiin-4-yl)pyridin-2 (IH)-one]
- IC50: 100 to 500 nM

Structure (SMILES): CC1CC(Nc2ccc3c(c2)Cc2cccc(-c4cc(N5CCOCC5)cc(=O)[nH]4)c2O3)CCN1C(=O)OC(C)(C)C (stereo not drawn) [Example 2-14-84, tert-Butyl 2-methyl-4-((5-(4-morpholino-6-oxo-1,6-dihydropyridin-2-yl)-9H-xanthen-2-yl)amino) piperidine-1-carboxylate]
- IC50: 500 to 2000 nM

Structure (SMILES): O=c1cc(N2CCOCC2)cc(-c2cccc3c2Sc2ccc(NC4CCCN(C5CCOCC5)C4)cc2S3)[nH]1 (stereo not drawn) [Example 1-24-7, 4-Morpholino-6-(7-((1-(tetrahydro-2H-pyran-4-yl)piperidin-3-yl)amino)thianthren-1-yl)pyridin-2 (1H)-one]
- IC50: 100 to 500 nM

Structure (SMILES): N#Cc1cccc(CNc2ccc3c(c2)Cc2ccnc(-c4cc(N5CCOCC5)cc(=O)[nH]4)c2O3)n1 [Example 2-41-15, 6-(((1-(4-Morpholino-6-oxo-1,6-dihydropyridin-2-yl)-5H-chromeno[2,3-c]pyridin-7-yl)amino)methyl)picolinonitrile]
- IC50: 100 to 500 nM

Structure (SMILES): CC(CNc1ccc2c(c1)Sc1cccc(-c3cc(N4CCOCC4)cc(=O)[nH]3)c1S2)N1CCOCC1 (single isomer, unassigned) [Example 1-9-2-2, 4-morpholino-6-(7-((2-morpholinopropyl)amino)thianthren-1-yl)pyridin-2(1H)-one]
- IC50: 100 to 500 nM

Structure (SMILES): CC1CC(C)CN(CC(CO)Nc2ccc3c(c2)Sc2cccc(-c4cc(N5CCOCC5)cc(=O)[nH]4)c2S3)C1 (stereo not drawn) [Example 1-37-5, 6-(7-((1-(3,5-Dimethylpiperidin-1-yl)-3-hydroxypropan-2-yl)amino)thianthren-1-yl)-4-morpholino pyridin-2 (1H)-one]
- IC50: 100 to 500 nM

Structure (SMILES): O=c1cc(N2CCOCC2)cc(-c2cccc3c2Oc2ccc(NCCN4CCOCC4)cc2C3)[nH]1 [Example 2-23-2, 4-Morpholino-6-(7-((2-morpholinoethyl)amino)-9H-xanthen-4-yl)pyridin-2(1H)-one]
- IC50: 500 to 2000 nM

Structure (SMILES): O=c1cc(N2CCOCC2)cc(-c2cccc3c2Oc2ccc(NCc4ccco4)cc2C3)[nH]1 [Example 2-14-33, 6-(7-((Furan-2-ylmethyl)amino)-9H-xanthen-4-yl)-4-morpholino pyridin-2(1H)-one]
- IC50: 100 to 500 nM

Structure (SMILES): O=c1cc(N2CCOCC2)cc(-c2cccc3c2Oc2ccc(NCCCc4cccnc4)cc2C3)[nH]1 [Example 2-14-14, 4-Morpholino-6-(7-((3-(pyridin-3-yl)propyl)amino)-9H-xanthen-4-yl) pyridin-2(1H)-one]
- IC50: 100 to 500 nM

Structure (SMILES): Cc1cnc(C(CCN(C)C)Nc2ccc3c(c2)Sc2cccc(-c4cc(=O)cc(N5CCOCC5)o4)c2O3)cn1 (single isomer, unassigned) [Example 10-9, 2-(8-((3-(Dimethylamino)-1-(5-methylpyrazin-2-yl)propyl)amino)phenoxathiin-4-yl)-6-morpholino-4H-pyran-4-one]
- IC50: < 100 nM

Structure (SMILES): CN1CC(CNc2ccc3c(c2)Sc2cccc(-c4cc(N5CCOCC5)cc(=O)[nH]4)c2S3)C1 [Example 1-2-1, 6-(7-(((1-methylazetidin-3-yl)methyl)amino)thianthren-1-yl)-4-morpholinopyridin-2(1H)-one]
- IC50: 100 to 500 nM

Structure (SMILES): O=c1cc(N2CCOCC2)cc(-c2nccc3c2Oc2ccc(NCc4cc(C5CC5)ccn4)cc2C3)[nH]1 [Example 2-41-6, 6-(7-(((4-Cyclopropylpyridin-2-yl)methyl)amino)-5H-chromeno[2,3-c]pyridin-1-yl)-4-morpliolino pyridin-2 (1H)-one]
- IC50: 100 to 500 nM
